Measured values taken from publication PMC11187217, “Anti-adhesive, anti-biofilm and fungicidal action of newly synthesized gemini quaternary ammonium salts” (Scientific Reports, 2024).

Tests used:
C. albicans ATCC 10231 = test: Filamentation of Candida albicans (DIC microscopy); type: cell-based; settings: 24 h incubation, ½ MIC, 37 °C
Experimental: The culture of C. albicans ATCC 10231 was incubated in YPG medium at 28 °C for 18 h. Then the culture was centrifuged (1000 rcf, 5 min), and the resulting pellet was suspended in fresh YPG medium to obtain a culture with OD = 0.6. […] The formation of filaments was observed using a differential interference contrast microscope (Olympus BX50 DIC Microscope) after 12 and 24 h of exposure to selected surfactants on C. albicans cells. The control was a culture not exposed to gemini QAS. The experiment was performed based on a modification of the protocol of Obłąk et al. ^46.

[1] = tested on: C. albicans ATCC 10231 biofilm; test: Biofilm eradication (crystal violet); type: cell-based, Candida albicans; settings: 24 h biofilm, 4 h exposure, concentration not given (tested 20–1280 µM)
Experimental: The culture of C. albicans ATCC 10231 was incubated with shaking for 18 h at 37 °C, centrifuged (1000 rcf, 5 min), and the pellet was suspended in PBS (pH 7.4) until OD = 0.8. 100 µl of the obtained culture was spotted into the wells of a 96-well plate and it was incubated at 37 °C for 24 h. After incubation, the culture was removed from the wells and rinsed with sterile distilled water. Then, 100 µl of the tested gemini QAS at concentrations of 20–1280 µM were added and incubated for 4 h at 37 °C. After this time, the compounds were removed, and the plates were rinsed with sterile distilled water and placed in an oven (60 °C, 20 min) to strengthen the formed biofilm. Then 100 µl of crystal violet (0.1%) was added and stained for 5 min. The plates were rinsed with sterile distilled water until there were no traces of purple in the rinse water, and 150 µl of washing mixture (1% SDS, 50 mmol HCl, 100% isopropanol) was added. Absorbance was measured at λ = 590 nm (BioTek 800 TS Absorbance Reader). The negative control was the medium, while the positive control was the culture wells to which the tested gemini QAS had not been added. The experiment was carried out based on a modification of the method of Obłąk et al.. The tested samples were performed in 3 repetitions.

[2] = Krafft point (TK) determination; type: physicochemical
Experimental: Elemental analysis was conducted utilizing Vario EL cube (Elementar, Germany) calibrated on acetanilide. Mass spectra were gain by electrospray ionization mass spectroscopy (ESI–MS) (micrOTOF-Q instrument; Bruker Daltonics, Germany). The ESI–MS aparatus was operated in the positive ion mode (calibrated with the Tunemix™ mixture; Bruker Daltonics; Germany), followed by spectra analysis by the DataAnalysis 3.4 software (Bruker Daltonics, Germany)—resolution of at least 5 ppm. Proton NMR and ^13C NMR measurements were performed on a Bruker AMX-500 spectrometer, utilizing CDCl3 or DMSO-d6 as a solvent. Proton and ^13C chemical shifts (given in ppm) were calibrated to TMS (δ = 0 ppm) as an internal reference. Krafft points were measured according to procedures described in our previous studies Lamch et al.,[82]. Values of CMC for all surfactants were measured utilizing the conductometric method for the compounds’ solutions in milliQ water in the same manner as described in Kula et al.. For all spectra: ^1H NMR, ^13C NMR and ESI–MS as well as appropriate comments see Electronic Supplementary Material.

[3] = tested on: S. cerevisiae Σ1278b ATCC 42800; test: Cytotoxicity, alamarBlue (resazurin) assay on yeast cells; type: cell-based, Saccharomyces cerevisiae; settings: ¼ and ½ MIC
Experimental: To determine the cytotoxicity of the tested gemini QAS on yeast cells, an experiment was performed using the alamarBlue colorimetric assay to determine the metabolic activity of cells, using the modified alamarBlue Cell Viability Assay Reagent method. Enzymes of the electron transport system reduce the blue resazurin solution to resorufin, which is fluorescent pink.
The yeast culture S. cerevisiae Σ1278b was incubated at 28 °C for 16 h with shaking (100 rpm), centrifuged (1000 rcf, 5 min) and the optical density was obtained, OD = 1.0, λ = 590 nm. On a 96-well titration plate we spotted 160 μl of YPG medium, 20 μl of yeast culture and the tested gemini QAS at final concentrations of ½ and ¼ MIC. The negative control was YPG medium with resazurin solution, and the positive control was resazurin solution with yeast culture. The plates were incubated at 28 °C for 12 h. Then, 20 μl of resazurin solution (alamarBlue) was added to the wells and the plate was incubated for 4 h in the dark. After incubation, the absorbance was measured at λ = 570 nm and λ = 600 nm and the color change of the wells from blue to pink was observed. The experiment was performed in 3 repetitions.

For `CCCCCCCCCCCC(=O)N(CCCN(CCC[N+](C)(C)C)C(=O)CCCCCCCCCCC)CCC[N+](C)(C)C` [2xC12BrG3], the “Effect on production of filaments by C. albicans” value (“Effect on production of filaments” below) (C. albicans ATCC 10231; listed as Dibromides with 12-carbon hydrophobic chains) was “completely inhibits filament formation and cell growth”, the “Destruction (eradication) of formed C. albicans biofilm” value (shortened to “Destruction (eradication)”) [1] was “approximately 80%” and the “TK (Krafft point)” value [2] was less than 0 °C. For the same molecule, the “Cytotoxic potential towards mitochondrial metabolism of S. cerevisiae Σ1278b cells” value [3] was “did not have cytotoxic potential”.
For `CCCCCCCCCCCC(=O)N(CCCN(CCC[N+](C)(C)C)C(=O)CCCCCCCCCCC)CCC[N+](C)(C)C` [2xC12MeCO3G3, dimethyl{{3-[N-(3-{N-[3-(dimethylammonium)propyl]dodecylamido}propyl}dodecylamido}propyl}}ammonium dimethylcarbonate], the “Effect on production of filaments” value (C. albicans ATCC 10231) was “almost completely inhibited the production of filaments”, the “Destruction (eradication)” value [1] was “approximately 40%” and the “TK (Krafft point)” value [2] was less than 0 °C. For the same molecule, the “Cytotoxic potential towards mitochondrial metabolism of S. cerevisiae Σ1278b cells” value [3] was “did not have cytotoxic potential”.
For `CCCCCCCCCCCCCC(=O)N(CCCN(CCC[N+](C)(C)C)C(=O)CCCCCCCCCCCCC)CCC[N+](C)(C)C` [2xC14BrG3], the “Effect on production of filaments” value (C. albicans ATCC 10231) was “had little effect on the formation of filaments”, the “Destruction (eradication)” value [1] was “approximately 80%” and the “TK (Krafft point)” value [2] was less than 0 °C. For the same molecule, the “Cytotoxic potential towards mitochondrial metabolism of S. cerevisiae Σ1278b cells” value [3] was “did not have cytotoxic potential”.
For `CCCCCCCCCCCCCCCC(=O)N(CCCN(CCC[N+](C)(C)C)C(=O)CCCCCCCCCCCCCCC)CCC[N+](C)(C)C` [2xC16BrG3], the “Effect on production of filaments” value (C. albicans ATCC 10231; listed as dibromides with 16-carbon alkyl chains) was “largely prevented the formation of filaments”, the “Destruction (eradication)” value [1] was “approximately 80%” and the “TK (Krafft point)” value [2] was ~ 5 °C. For the same molecule, the “Cytotoxic potential towards mitochondrial metabolism of S. cerevisiae Σ1278b cells” value [3] was “did not have cytotoxic potential”.
With `CCCCCCCCCCCCCCCC(=O)N(CCCN(CCC[N+](C)(C)C)C(=O)CCCCCCCCCCCCCCC)CCC[N+](C)(C)C` [2xC16LaG3] the “Effect on production of filaments” value (C. albicans ATCC 10231) was “strongly prevented the formation of filaments”, the “Destruction (eradication)” value [1] was “approximately 20%” and the “TK (Krafft point)” value [2] was less than 0 °C. The “Cytotoxic potential towards mitochondrial metabolism of S. cerevisiae Σ1278b cells” value [3] was “did not have cytotoxic potential”.
With `CCCCCCCCCCCCCCCC(=O)N(CCCN(CCC[N+](C)(C)C)C(=O)CCCCCCCCCCCCCCC)CCC[N+](C)(C)C` [2xC16MeCO3G3, dimethyl{{3-[N-(3-{N-[3-(dimethylammonium)propyl]hexadecylamido}propyl}hexadecylamido}propyl}}ammonium dimethylcarbonate] the “Effect on production of filaments” value (C. albicans ATCC 10231) was “significantly reduced their number”, the “Destruction (eradication)” value [1] was “approximately 80%” and the “TK (Krafft point)” value [2] was ~ 5 °C. For the same molecule, the “Cytotoxic potential towards mitochondrial metabolism of S. cerevisiae Σ1278b cells” value [3] was “did not have cytotoxic potential”.
